Laboratory results published in ChEMBL document CHEMBL5137000, “Discovery of a novel and potent inhibitor with differential species-specific effects against NLRP3 and AIM2 inflammasome-dependent pyroptosis” (Eur J Med Chem, 2022).
The source made the active and inactive calls. No cut-off for these calls is given here.

Target: NACHT, LRR and PYD domains-containing protein 3 (Homo sapiens) (UniProt Q96P20)
Assay: Inhibition of NLRP3 inflammasome activation in LPS-primed human THP-1 cells assessed as reduction in nigericin-induced IL-1beta release in supernatant pretreated for 30 mins followed by nigericin stimulation and measured after 30 min by ELISA
Format: cell-based
Conditions: time 60.0 min

Sequence of NACHT, LRR and PYD domains-containing protein 3 (Homo sapiens) (Q96P20 whole entry, the tested form may be a part): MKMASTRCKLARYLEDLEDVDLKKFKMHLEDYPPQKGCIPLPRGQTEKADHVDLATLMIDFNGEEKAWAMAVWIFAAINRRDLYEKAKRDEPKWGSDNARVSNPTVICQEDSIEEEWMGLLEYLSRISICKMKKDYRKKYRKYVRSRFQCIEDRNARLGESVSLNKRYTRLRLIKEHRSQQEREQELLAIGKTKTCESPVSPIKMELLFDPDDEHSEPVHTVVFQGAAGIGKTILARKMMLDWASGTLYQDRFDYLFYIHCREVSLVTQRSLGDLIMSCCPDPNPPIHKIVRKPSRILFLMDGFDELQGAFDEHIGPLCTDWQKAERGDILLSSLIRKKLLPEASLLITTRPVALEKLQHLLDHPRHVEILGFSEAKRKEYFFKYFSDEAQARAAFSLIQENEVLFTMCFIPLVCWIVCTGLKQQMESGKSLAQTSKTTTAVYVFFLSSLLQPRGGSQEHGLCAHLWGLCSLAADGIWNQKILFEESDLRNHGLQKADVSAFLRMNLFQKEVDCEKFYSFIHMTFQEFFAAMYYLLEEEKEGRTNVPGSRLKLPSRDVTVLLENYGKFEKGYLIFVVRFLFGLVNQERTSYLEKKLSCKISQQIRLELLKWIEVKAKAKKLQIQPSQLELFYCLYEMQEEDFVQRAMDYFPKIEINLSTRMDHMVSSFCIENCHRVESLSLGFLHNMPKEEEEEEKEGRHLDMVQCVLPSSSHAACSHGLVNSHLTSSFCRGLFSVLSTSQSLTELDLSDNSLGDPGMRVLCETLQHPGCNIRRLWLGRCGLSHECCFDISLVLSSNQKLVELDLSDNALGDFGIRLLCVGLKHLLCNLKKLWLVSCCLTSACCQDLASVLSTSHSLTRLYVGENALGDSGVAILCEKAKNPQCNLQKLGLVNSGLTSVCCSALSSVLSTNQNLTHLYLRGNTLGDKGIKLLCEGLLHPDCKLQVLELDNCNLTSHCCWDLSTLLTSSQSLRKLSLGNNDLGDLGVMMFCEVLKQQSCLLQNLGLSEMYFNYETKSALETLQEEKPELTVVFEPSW

- inhibition: Active
SMILES: COc1ccc(CC(=O)Nc2cccc(B(O)O)c2)cc1
